Measurements: ChEMBL document CHEMBL5291721, “A preclinical secondary pharmacology resource illuminates target-adverse drug reaction associations of marketed drugs” (Nat Commun, 2023)

How the values were obtained:
[1] = target: T1, Gastrin/cholecystokinin type B receptor (Homo sapiens, UniProt P32239)
T1 sequence (P32239 whole entry): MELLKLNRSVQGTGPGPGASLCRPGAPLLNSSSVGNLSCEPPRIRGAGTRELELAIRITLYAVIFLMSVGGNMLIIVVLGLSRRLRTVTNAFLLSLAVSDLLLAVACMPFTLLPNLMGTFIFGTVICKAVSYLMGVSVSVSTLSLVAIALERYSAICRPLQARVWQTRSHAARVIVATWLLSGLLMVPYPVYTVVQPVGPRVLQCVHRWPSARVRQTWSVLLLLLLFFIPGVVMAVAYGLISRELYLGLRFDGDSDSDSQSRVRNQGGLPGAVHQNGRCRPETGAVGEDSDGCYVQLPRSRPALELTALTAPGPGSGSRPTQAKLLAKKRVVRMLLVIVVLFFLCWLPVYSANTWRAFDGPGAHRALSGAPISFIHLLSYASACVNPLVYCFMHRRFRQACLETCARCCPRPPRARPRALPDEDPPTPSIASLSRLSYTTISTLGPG

[2] = target: T2, 5-hydroxytryptamine receptor 1A (Homo sapiens, UniProt P08908); format: functional, cell-based
T2 sequence (P08908 whole entry): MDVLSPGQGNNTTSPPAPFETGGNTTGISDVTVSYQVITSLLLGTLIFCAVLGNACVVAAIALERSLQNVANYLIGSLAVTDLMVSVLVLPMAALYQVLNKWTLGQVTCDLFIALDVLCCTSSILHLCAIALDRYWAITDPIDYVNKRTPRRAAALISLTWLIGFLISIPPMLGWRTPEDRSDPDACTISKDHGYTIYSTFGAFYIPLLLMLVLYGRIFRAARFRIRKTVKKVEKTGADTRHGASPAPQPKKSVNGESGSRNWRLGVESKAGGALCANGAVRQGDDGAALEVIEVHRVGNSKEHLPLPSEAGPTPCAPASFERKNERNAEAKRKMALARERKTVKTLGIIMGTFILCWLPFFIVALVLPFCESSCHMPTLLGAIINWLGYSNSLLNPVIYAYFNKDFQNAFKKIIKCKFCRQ

[3] = target: 5-hydroxytryptamine receptor 2A (Homo sapiens, UniProt P28223); format: functional, cell-based
[4] = target: T3, 5-hydroxytryptamine receptor 2B (Homo sapiens, UniProt P41595); format: functional, cell-based
[5] = target: T4, Glucocorticoid receptor (Homo sapiens, UniProt P04150)
T4 sequence (P04150 whole entry): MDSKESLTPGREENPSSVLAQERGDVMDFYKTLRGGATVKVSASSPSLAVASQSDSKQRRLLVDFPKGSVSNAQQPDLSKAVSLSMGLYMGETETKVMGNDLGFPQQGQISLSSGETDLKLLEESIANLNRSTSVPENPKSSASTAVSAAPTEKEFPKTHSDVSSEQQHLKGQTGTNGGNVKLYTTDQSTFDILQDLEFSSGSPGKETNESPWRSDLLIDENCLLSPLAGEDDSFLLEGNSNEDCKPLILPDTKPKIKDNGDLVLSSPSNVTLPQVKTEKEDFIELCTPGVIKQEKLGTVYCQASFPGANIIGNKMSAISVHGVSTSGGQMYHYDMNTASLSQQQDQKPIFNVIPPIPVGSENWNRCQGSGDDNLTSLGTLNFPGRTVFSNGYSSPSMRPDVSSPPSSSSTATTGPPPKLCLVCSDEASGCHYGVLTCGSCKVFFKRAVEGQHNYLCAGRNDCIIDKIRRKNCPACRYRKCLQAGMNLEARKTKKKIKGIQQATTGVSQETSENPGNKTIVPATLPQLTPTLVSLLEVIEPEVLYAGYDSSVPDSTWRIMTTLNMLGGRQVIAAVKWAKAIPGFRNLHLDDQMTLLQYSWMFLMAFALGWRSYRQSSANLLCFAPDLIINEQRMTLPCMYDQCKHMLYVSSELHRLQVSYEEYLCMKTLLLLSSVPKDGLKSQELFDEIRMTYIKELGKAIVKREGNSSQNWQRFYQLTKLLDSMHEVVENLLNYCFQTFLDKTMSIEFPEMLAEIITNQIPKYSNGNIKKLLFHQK

[6] = target: T5, Alpha-1A adrenergic receptor (Homo sapiens, UniProt P35348)
T5 sequence (P35348 whole entry): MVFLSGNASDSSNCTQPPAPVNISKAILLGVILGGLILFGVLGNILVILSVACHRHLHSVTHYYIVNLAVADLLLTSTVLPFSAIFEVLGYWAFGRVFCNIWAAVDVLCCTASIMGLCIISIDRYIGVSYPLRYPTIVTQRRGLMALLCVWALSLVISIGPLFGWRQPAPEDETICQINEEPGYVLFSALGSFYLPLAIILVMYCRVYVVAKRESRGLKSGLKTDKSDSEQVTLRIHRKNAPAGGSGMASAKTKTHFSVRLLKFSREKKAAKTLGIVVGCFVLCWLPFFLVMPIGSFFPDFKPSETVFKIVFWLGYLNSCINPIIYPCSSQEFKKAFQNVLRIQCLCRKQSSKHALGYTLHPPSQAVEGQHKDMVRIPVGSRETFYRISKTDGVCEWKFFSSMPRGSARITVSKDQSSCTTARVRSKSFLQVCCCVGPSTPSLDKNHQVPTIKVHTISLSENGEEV

[7] = target: Beta-2 adrenergic receptor (Homo sapiens, UniProt P07550)
[8] = target: Cannabinoid receptor 1 (Homo sapiens, UniProt P21554)
[9] = target: T3, 5-hydroxytryptamine receptor 2B; format: functional, cell-based; remark: listed apart in the source
Also: assay procedure not described here.

Chain of Beta-2 adrenergic receptor (P07550 whole entry): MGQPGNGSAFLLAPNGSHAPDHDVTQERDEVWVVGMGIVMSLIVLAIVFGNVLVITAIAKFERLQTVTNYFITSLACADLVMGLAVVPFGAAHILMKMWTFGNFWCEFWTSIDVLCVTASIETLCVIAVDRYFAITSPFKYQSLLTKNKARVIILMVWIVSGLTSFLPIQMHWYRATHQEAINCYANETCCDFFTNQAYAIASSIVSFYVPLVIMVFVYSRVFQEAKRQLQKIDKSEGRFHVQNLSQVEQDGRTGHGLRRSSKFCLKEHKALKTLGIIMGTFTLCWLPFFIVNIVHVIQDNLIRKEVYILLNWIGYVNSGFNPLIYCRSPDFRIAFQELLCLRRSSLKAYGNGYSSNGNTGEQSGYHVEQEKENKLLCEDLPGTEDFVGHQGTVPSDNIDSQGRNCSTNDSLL
T3 sequence (P41595 whole entry): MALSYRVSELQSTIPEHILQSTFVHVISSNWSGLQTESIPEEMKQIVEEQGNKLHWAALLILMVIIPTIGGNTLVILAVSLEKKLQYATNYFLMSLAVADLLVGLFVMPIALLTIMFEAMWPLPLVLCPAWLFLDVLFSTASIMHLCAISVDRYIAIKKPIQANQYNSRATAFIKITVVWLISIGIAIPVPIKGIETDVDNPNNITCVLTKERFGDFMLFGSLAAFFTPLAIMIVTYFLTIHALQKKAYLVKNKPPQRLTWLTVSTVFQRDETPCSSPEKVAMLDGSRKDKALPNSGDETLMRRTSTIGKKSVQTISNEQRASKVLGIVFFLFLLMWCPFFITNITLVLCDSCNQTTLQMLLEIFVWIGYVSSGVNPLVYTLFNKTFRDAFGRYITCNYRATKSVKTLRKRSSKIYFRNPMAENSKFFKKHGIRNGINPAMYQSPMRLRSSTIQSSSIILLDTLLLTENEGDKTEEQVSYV
Chain of 5-hydroxytryptamine receptor 2A (P28223 whole entry): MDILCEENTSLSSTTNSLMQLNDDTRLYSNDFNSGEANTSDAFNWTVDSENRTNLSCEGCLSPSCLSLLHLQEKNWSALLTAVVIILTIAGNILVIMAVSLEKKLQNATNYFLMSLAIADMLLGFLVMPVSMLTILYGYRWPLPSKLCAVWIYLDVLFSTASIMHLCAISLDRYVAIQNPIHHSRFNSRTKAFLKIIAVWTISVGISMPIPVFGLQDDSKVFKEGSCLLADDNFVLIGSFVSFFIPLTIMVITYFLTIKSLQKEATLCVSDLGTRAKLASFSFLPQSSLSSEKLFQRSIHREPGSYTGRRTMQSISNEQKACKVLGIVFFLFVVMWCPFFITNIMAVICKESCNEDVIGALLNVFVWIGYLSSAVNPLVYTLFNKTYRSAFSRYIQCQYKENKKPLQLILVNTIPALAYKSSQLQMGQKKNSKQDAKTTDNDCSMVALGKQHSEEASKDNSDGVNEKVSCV
Chain of Cannabinoid receptor 1 (P21554 whole entry): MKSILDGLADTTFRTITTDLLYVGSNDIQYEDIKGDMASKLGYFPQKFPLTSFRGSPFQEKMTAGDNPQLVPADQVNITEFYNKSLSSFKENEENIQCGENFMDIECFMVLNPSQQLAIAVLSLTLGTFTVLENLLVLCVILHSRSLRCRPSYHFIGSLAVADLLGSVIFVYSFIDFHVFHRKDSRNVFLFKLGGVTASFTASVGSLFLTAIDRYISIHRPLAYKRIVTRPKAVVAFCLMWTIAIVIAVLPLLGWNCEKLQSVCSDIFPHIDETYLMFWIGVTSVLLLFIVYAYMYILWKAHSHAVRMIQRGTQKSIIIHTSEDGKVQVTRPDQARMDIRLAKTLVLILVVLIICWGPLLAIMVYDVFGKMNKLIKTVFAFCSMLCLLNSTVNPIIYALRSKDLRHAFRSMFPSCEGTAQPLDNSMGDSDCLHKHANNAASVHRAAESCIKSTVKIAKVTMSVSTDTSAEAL

Row | SMILES | AC50 [1] | AC50 [2] | AC50 [3] | AC50 [4] | AC50 [5] | AC50 [6] | AC50 [7] | AC50 [8] | AC50 [9]
1 | CC(=O)N[C@@H](CS)C(=O)O [ACETYLCYSTEINE] | > 30 µM | > 30 µM | > 30 µM | > 30 µM | > 30 µM |  |  |  | 
2 | CC(C(=O)O)c1ccc(-c2ccccc2)c(F)c1 (stereo not given) [FLURBIPROFEN] |  | > 10 µM |  | > 10 µM | > 30 µM | > 10 µM | > 10 µM | > 10 µM | > 30 µM
3 | COc1cc(N)c(Cl)cc1C(=O)NC1CCN(Cc2ccccc2)CC1 [CLEBOPRIDE] | > 30 µM |  | > 30 µM | 0.98 µM | > 30 µM |  | > 30 µM |  | 
4 | Cc1cccc(N2CC(CO)OC2=O)c1 (stereo not given) [TOLOXATONE] | > 30 µM |  | > 30 µM | > 30 µM | > 30 µM |  |  |  | 
5 | C#C[C@]1(OC(C)=O)CC[C@H]2[C@@H]3CCC4=C/C(=N/O)CC[C@@H]4[C@H]3CC[C@@]21CC [NORGESTIMATE] | > 30 µM | > 30 µM | > 30 µM | > 30 µM | 0.041 µM |  | > 30 µM |  | 
6 | COCC1=C(C(=O)O)N2C(=O)[C@@H](NC(=O)/C(=N\OC)c3csc(N)n3)[C@H]2SC1 [CEFPODOXIME] | > 30 µM | > 30 µM | > 30 µM | > 30 µM | > 30 µM |  | > 30 µM |  | 
7 | Clc1ccc2c(N3CCN(CCCN4CCN(c5ccnc6cc(Cl)ccc56)CC4)CC3)ccnc2c1 [PIPERAQUINE] | > 30 µM |  | > 30 µM | > 30 µM | > 30 µM |  | > 30 µM |  | 
8 | CC12CC3CC(C)(C1)CC(N)(C3)C2 [MEMANTINE] | > 30 µM | > 10 µM |  | > 10 µM | > 30 µM | > 10 µM | > 10 µM | > 10 µM | 
9 | CCOC(=O)C1=C[C@]2(CC)CCCN3CCc4c(n1c1ccccc41)[C@@H]32 [VINPOCETINE] | > 30 µM |  | > 30 µM |  | > 30 µM |  |  |  | 
10 | CCCCC(=O)O[C@]1(C(=O)CO)[C@@H](C)C[C@H]2[C@@H]3CCC4=CC(=O)C=C[C@]4(C)[C@@]3(F)[C@@H](O)C[C@@]21C [BETAMETHASONE VALERATE] | > 30 µM |  |  | > 10 µM | 0.004 µM | > 10 µM | > 10 µM | > 10 µM | 
11 | CC(N)C(O)c1ccccc1 (stereo not given) [PHENYLPROPANOLAMINE] | > 30 µM | > 10 µM |  | > 10 µM | > 30 µM | > 10 µM | > 10 µM | > 10 µM | 
12 | CCC(C)C(CC)C(N)=O (stereo not given) [VALNOCTAMIDE] | > 30 µM |  | > 30 µM |  | > 30 µM |  |  |  | 
13 | CC1(C)S[C@@H]2[C@H](NC(=O)[C@H](N)c3ccccc3)C(=O)N2[C@H]1C(=O)OCOC(=O)[C@@H]1N2C(=O)C[C@H]2S(=O)(=O)C1(C)C [SULTAMICILLIN] | > 30 µM |  | > 30 µM | > 30 µM | > 30 µM |  | > 30 µM |  | 
14 | CCOC(=O)C1=C(C)NC(C)=C(C(=O)OC)C1c1cccc([N+](=O)[O-])c1 (stereo not given) [NITRENDIPINE] | > 30 µM | > 10 µM |  | > 10 µM |  | > 10 µM | > 10 µM | > 10 µM | 
